One data set concerns S. aureus. Put plainly: microbe, parasite or virus in culture. In kind it is cell-based.
Another data set has as its system Enterobacter aerogenes. Put plainly: microbe, parasite or virus in culture. The format is cell-based. The settings on record: Klebsiella aerogenes.
The subject of the next data set is Enterobacter cloacae. Briefly: microbe, parasite or virus in culture. The format is cell-based.
The test system of a further data set is C. freundii. Put plainly: microbe, parasite or virus in culture. The format is cell-based.
For the next data set, the system named is Serratia marcescens. Briefly: microbe, parasite or virus in culture. The format is cell-based.
The next data set concerns P. aeruginosa. Briefly: microbe, parasite or virus in culture. In kind it is cell-based. The settings on record: Pseudomonas aeruginosa.
The test system of another data set is Bacteroides fragilis. Put plainly: microbe, parasite or virus in culture. In kind it is cell-based.
The subject of a further data set is Clostridium perfringens. Put plainly: microbe, parasite or virus in culture. The format is cell-based.
The subject of another data set is Morganella morganii. Briefly: microbe, parasite or virus in culture. The format is cell-based.
The next data set has as its system Proteus vulgaris. Briefly: microbe, parasite or virus in culture. The format is cell-based.
In the next data set the test system is Providencia rettgeri. Briefly: microbe, parasite or virus in culture. The format is cell-based.
The next data set deals with Providencia stuartii. Put plainly: microbe, parasite or virus in culture. The format is cell-based.
Data set [1] in a line: Blood concentrations of BL-P 2013 after oral administration. The format is in vivo. The settings on record: mice; oral administration of doses of 25 to 100 mg./kg. of body weight.
The subject of a further data set is B. fragilis. The settings on record: cited from earlier work.
Where [2] appears, read: Table 1, C. perfringens, 3 strains (first group), geometric mean, 2 tests, BL-P 2013 as K salt.
Where [3] appears, read: Table 1, C. perfringens, 3 strains (second group), geometric mean, 2 tests, BL-P 2013 as K salt.
Setting [4] is: Table 1, C. perfringens, 8 strains, geometric mean, 2 tests, BL-P 2013 as K salt.
[5] abbreviates: Table 3, C. perfringens, 1 strain.
The mark [6] stands for this setting: Table 3, C. perfringens, 2 strains, geometric mean.
Setting [7] is: Table 3, C. perfringens, 4 strains, geometric mean.
Setting [8] is: Table 3, C. perfringens, 6 strains, geometric mean.

The values below come from patent publication EP0134302A1, “Pharmaceutical compositions for treating resistant bacteria including anaerobes” (Bristol-Myers Company, priority 1983, dated 1985).

Converted amounts (≈) assume the structure as drawn. “And” between values parts separate entries of the source, which are not always exact repeats. Identical values can stand only once. Like-named read-outs stand apart in the source and are kept apart here.

Regarding `C[C@]1(CCl)[C@H](C(=O)O)N2C(=O)C[C@H]2S1(=O)=O` [BL-P 2013], the MIC is 73 µg/mL and 96 µg/mL and 85 µg/mL with S. aureus; 100 µg/mL (≈ 374 µM) in the data set with S. aureus (Staphylococcus aureus); greater than 125 µg/mL with Enterobacter aerogenes; greater than 125 µg/mL against Enterobacter cloacae; greater than 125 µg/mL in the data set with C. freundii (Citrobacter freundii); greater than 125 µg/mL in the data set with Serratia marcescens. Also, the MIC is greater than 125 µg/mL against P. aeruginosa; 21 µg/mL (≈ 78.4 µM) in the data set on Bacteroides fragilis (Bacteroides fragilis); greater than 125 µg/mL in the data set with Clostridium perfringens (setting [2]); 89 µg/mL in the data set on Clostridium perfringens (setting [3]); greater than 120 µg/mL in the data set on Clostridium perfringens (setting [4]); greater than 32 µg/mL with Clostridium perfringens (setting [5]). Further, the MIC against Clostridium perfringens (setting [6]) is greater than 32 µg/mL; against Clostridium perfringens (setting [7]), 27 µg/mL (≈ 101 µM); against Clostridium perfringens (setting [8]), greater than 32 µg/mL; against Morganella morganii, greater than 125 µg/mL; against Proteus vulgaris, greater than 125 µg/mL; with Providencia rettgeri, greater than 125 µg/mL. This molecule also returned an MIC in the data set with Providencia stuartii greater than 125 µg/mL. In addition, in data set [1], the “blood concentrations of BL-P 2013” value is “Operative blood concentrations”.

Take `CC(C)(C)C(=O)OCOC(=O)[C@@H]1N2C(=O)C[C@H]2S(=O)(=O)[C@@]1(C)CCl`: the “blood concentrations of BL-P 2013” value in [1] is “Operative blood concentrations”.

`CC1(C)[C@H](C(=O)O)N2C(=O)C[C@H]2S1(=O)=O` [CP-45,899, Penicillanic acid-1,1-dioxide]: the “synergism with ampicillin against B. fragilis” value with B. fragilis (Fass, Abstract No. 605, 1980) was “highly synergistic”.

Consider `CC(C)(O/N=C(\C(=O)N[C@@H]1C(=O)N2C(C(=O)[O-])=C(C[n+]3ccccc3)CS[C@H]12)c1csc(N)n1)C(=O)O` [Ceftazidime, reference compound], for which the MIC is 8.6 µg/mL and 9.7 µg/mL with S. aureus; 8 µg/mL (≈ 14.6 µM) in the data set on S. aureus (Staphylococcus aureus); 63 µg/mL (≈ 115 µM) against C. freundii; 8 µg/mL (≈ 14.6 µM) in the data set on P. aeruginosa; 0.04 µg/mL in the data set on Clostridium perfringens (setting [2]); 0.7 µg/mL with Clostridium perfringens (setting [3]). The MIC in the data set with Clostridium perfringens (setting [4]) turned out to be 3.3 µg/mL; against Clostridium perfringens (setting [5]) it was 2 µg/mL (≈ 3.66 µM); with Clostridium perfringens (setting [6]) it was 5.7 µg/mL (≈ 10.4 µM); against Clostridium perfringens (setting [7]), 0.11 µg/mL (≈ 0.201 µM); against Clostridium perfringens (setting [8]) it was 0.1 µg/mL (≈ 0.183 µM); against Proteus vulgaris it was 0.063 µg/mL (≈ 0.115 µM). Besides, the “susceptibility of Bacteroides fragilis strains” value in the data set on Bacteroides fragilis is reported as “resistant”. Besides, the “activity against B. fragilis” value in the data set with B. fragilis (Wise et al. 1980) is recorded as “low activity”.

Take `C[C@]1(CCl)[C@H](C(=O)OC2OC(=O)c3ccccc32)N2C(=O)C[C@H]2S1(=O)=O` (stereo partly shown): the “blood concentrations of BL-P 2013” value in data set [1] is given as “Operative blood concentrations”.
